Assay type in all cases: cell-based
For test [1], the system named is Fusarium falciforme FS1 (ATCC MYA-3636). The test is described as follows: Fungal MIC Protocol, Fusarium falciforme. Particulars: Fusarium falciforme, read-out: MIC Fusarium falciforme 3636. The protocol:
(§1) Fungal MIC Protocol: RPMI/MOPS media (Roswell Park Memorial Institute/3-morpholinopropane-1-sulfonic acid media) is prepared by dissolving 8.4 grams RPMI […] (Sigma cat #R1383), 34.52 grams MOPS buffer (Sigma cat #M3.183) and 2 […] glucose in 900 mL deionized water. The pH is adjusted to 7.0 with NaOH and filter sterilized. 0.1 mL, of a stock spore suspension (or loop from frozen stock) is inoculated to a 75 mL tissue culture flask (Falcon cat #353136) containing 50 mL of Potato Dextrose Agar (PDA, 24 grams PD broth (Fisher cat #DF 0549179), 20 grams agar (Fisher cat #BP 1423500) per liter water). Aspergillus and Fusarium strains are grown at 35° C. and Mucor strains are grown at room temperature for 3-5 days. Spores are harvested by flooding the flask with 5 mL phosphate buffered saline (PBS) pH 7.4+0.1% Tween-20 and several glass beads (Fisher cat #S800243) are added to aid in agitation. The supernatant is removed and the OD530 of a 1:100 dilution is measured. Spores are diluted in RPMI/MOPS to a final OD530 of 0.002 for Aspergillus and an OD530 of 0.005 for Fusarium and Mucor. The final concentration of spores is approximately 2×10^4 cfu/mL. Test compound(s) are diluted to 200 ug/mL in RPMI/MOPS ([…]). Ten (10) serial dilutions are prepared with RPMI/MOPS in a 96-well round bottom plate (Fisher cat #353136). For Mucor strains a sterile flat-bottom 96-well plate is used. 50 μl of compound dilutions in duplicate are added to a sterile 96-well round bottom plate. 50 ul of diluted spores are added to the compound-containing plates. Control wells include 1) compound but no cells and 2) spores but no compound. Mix the plates gently by hand, place in ziplock bags and
(§2) incubate at 35° C. for 48 hours. […]

Test [2] deals with Aspergillus fumigatus T33439 (ATCC MYA-3626). The test is described as follows: Fungal MIC Protocol, Aspergillus fumigatus. Particulars: Aspergillus fumigatus, read-out: MIC Aspergillus fumigatus 3626. The protocol:
as §1, §2

The test system of test [3] is Fusarium solani (ATCC 58877). The test is described as follows: Fungal MIC Protocol, Fusarium solani. Conditions: Fusarium solani, read-out: MIC Fusarium solani 58877. The protocol: as §1, §2
Test [4] deals with Mucor ramosissimus 057718 (ATCC 90286). Description: Fungal MIC Protocol, Mucor ramosissimus (MIC-50). Conditions: Mucor ramosissimus, read-out: MIC-50 Mucorales ramosissimus 90286. The protocol:
as §1
(§3) incubate at 35° C. for 48 hours. Score the MIC visually (lowest concentration of compound showing >50% growth inhibition) using an inverted mirror.

The test system of test [5] is Aspergillus flavus AFL1 (ATCC MYA-3631). The test is described as follows: Fungal MIC Protocol, Aspergillus flavus. Particulars: Aspergillus flavus, read-out: MIC Aspergillus flavus 3631. As for the experimental part:
as §1, §2

Test [6] deals with Mucor circinelloides 1463(62) (ATCC 26759). The test is described as follows: Fungal MIC Protocol, Mucor circinelloides (MIC-50). Conditions: Mucor circinelloides, read-out: MIC-50 Mucorales circinelloides 26579. As for the experimental part: as §1, §3
The mark [7] stands for this setting: 100% growth inhibition at 48 hours.
Setting [8] is: ATCC58877, 100% growth inhibition at 48 hours.
Setting [9] is: ATCC90286, 50% growth inhibition at 48 hours.
Where [10] appears, read: ATCC26759, 50% growth inhibition at 48 hours.

SMILES strings stand for the structures. ≈ marks a conversion by molar mass, not a printed value. Where a name gives a salt, the structure may show the parent alone. Read-outs that look alike come from different tables or passages of the source.

Results on twelve compounds are retold here after US20240018121A1, “NOVEL HETEROAROMATIC COMPOUNDS EXHIBITING ANTIFUNGAL ACTIVITY AND THEIR METHOD OF USE” (FOX CHASE CHEMCIAL DIVERSITY CENTER, INC., priority 2020, published 2024).

As to `Cn1c(-c2ccc(C3=CCC(NC(=N)N)CC3)cc2F)nnc1-c1ccc(C2=CCC(NC(=N)N)CC2)cc1F` (stereo not shown) [Example 40, 1-[4-(4-{5-[4-(4-Carbamimidamidocyclohex-1-en-1-yl)-2-fluorophenyl]-4-methyl-4H-1,2,4-triazol-3-yl}-3-fluorophenyl)cyclohex-3-en-1-yl]guanidine], the MIC in test [1] (setting [7]) turned out to be 1.56 µg/mL (≈ 2.86 µM); in test [2] (setting [7]), 6.25 µg/mL (≈ 11.5 µM); in test [3] (setting [8]), 1.56 µg/mL (≈ 2.86 µM); in test [5] (setting [7]), 6.25 µg/mL (≈ 11.5 µM). Besides, the results for the MIC50 in test [4] (setting [9]) and in test [6] (setting [10]) were 50 µg/mL (≈ 91.6 µM) and 6.25 µg/mL (≈ 11.5 µM), respectively.

For the compound `CC(O)Cn1c(-c2ccc(C3=CCN(C(=N)N)CC3)cc2F)nnc1-c1ccc(C2=CCN(C(=N)N)CC2)cc1F` (stereo not shown) [Example 66, 4-(4-{5-[4-(1-carbamimidoyl-1,2,3,6-tetrahydropyridine-4-yl)-2-fluorophenyl]-4-(2-hydroxypropyl)-4H-1,2,4-triazol-3-yl}-3-fluorophenyl)-1,2,3,6-tetrahydropyridine-1-carboximidamide trifluoroacetate], the MIC in test [1] (48 h) amounted to 0.1 µg/mL; in test [2] (48 h), 0.2 µg/mL; in test [3] (ATCC58877, 48 h), 0.2 µg/mL; in test [5] (48 h) it was 0.39 µg/mL. In addition, the MIC50 was 6.25 µg/mL in test [4] (ATCC90286, 48 h) and 1.56 µg/mL in test [6] (ATCC26759, 48 h).

Turning to `N=C(N)N1CC=C(c2ccc(-c3nnc(-c4ccc(C5=CCN(C(=N)N)CC5)cc4)n3Cc3ccccc3)cc2)CC1` [Example 5, 4,4′-(4,4′-(4-Benzyl-4H-1,2,4-triazole-3,5-diyl)bis(4,1-phenylene))bis(5,6-dihydropyridine-1(2H)-carboximidamide)], the MIC in test [1] (setting [7]) was below 0.1 µg/mL; in test [2] (setting [7]) it was 0.39 µg/mL (≈ 0.699 µM); in test [3] (setting [8]), 0.39 µg/mL (≈ 0.699 µM); in test [5] (setting [7]) it was 1.56 µg/mL (≈ 2.8 µM). Moreover, the values for the MIC50 in test [4] (setting [9]) and in test [6] (setting [10]) were 6.25 µg/mL (≈ 11.2 µM) and 1.56 µg/mL (≈ 2.8 µM), respectively.

For `CC(C)(O)Cn1c(-c2ccc(C3=CCN(C(=N)N)CC3)cc2F)nnc1-c1ccc(C2=CCN(C(=N)N)CC2)cc1F` [Example 74, 4-(4-{5-[4-(1-carbamimidoyl-1,2,3,6-tetrahydropyridin-4-yl)-2-fluorophenyl]-4-(2-hydroxy-2-methylpropyl)-4H-1,2,4-triazol-3-yl}-3-fluorophenyl)-1,2,3,6-tetrahydropyridine-1-carboximidamide hydrochloride], the MIC stood at 0.1 µg/mL in test [1] (48 h); 0.39 µg/mL in test [2] (48 h); 0.1 µg/mL in test [3] (ATCC58877, 48 h); 0.78 µg/mL in test [5] (48 h). In addition, the MIC50 amounted to 3.13 µg/mL in test [4] (ATCC90286, 48 h) and 1.56 µg/mL in test [6] (ATCC26759, 48 h).

As to `N=C(N)N1CC=C(c2ccc(-c3nnc(-c4ccc(C5=CCN(C(=N)N)CC5)c(C(F)(F)F)c4)n3CCO)cc2C(F)(F)F)CC1` [Example 80, 4-(4-{5-[4-(1-carbamimidoyl-1,2,3,6-tetrahydropyridin-4-yl)-3-(trifluoromethyl)phenyl]-4-(2-hydroxyethyl)-4H-1,2,4-triazol-3-yl}-2-(trifluoromethyl)phenyl)-1,2,3,6-tetrahydropyridine-1-carboximidamide hydrochloride], the MIC in test [1] (48 h) was 25 µg/mL; in test [2] (48 h), 25 µg/mL; in test [3] (ATCC58877, 48 h) it was 25 µg/mL; in test [5] (48 h), 25 µg/mL. Also, the MIC50 in test [4] (ATCC90286, 48 h) was determined as 25 µg/mL; in test [6] (ATCC26759, 48 h), 25 µg/mL.

For the compound `CC(CO)n1c(-c2ccc(C3=CCN(C(=N)N)CC3)cc2F)nnc1-c1ccc(C2=CCN(C(=N)N)CC2)cc1F` (stereo not shown) [Example 83, 4-(4-{5-[4-(1-carbamimidoyl-1,2,3,6-tetrahydropyridin-4-yl)-2-fluorophenyl]-4-(1-hydroxypropan-2-yl)-4H-1,2,4-triazol-3-yl}-3-fluorophenyl)-1,2,3,6-tetrahydropyridine-1-carboximidamide hydrochloride], the MIC in test [1] (48 h) is 0.2 µg/mL; in test [2] (48 h) it was 0.39 µg/mL; in test [3] (ATCC58877, 48 h), 0.2 µg/mL; in test [5] (48 h), 0.78 µg/mL. Besides, the MIC50 worked out at 12.5 µg/mL in test [4] (ATCC90286, 48 h) and 1.56 µg/mL in test [6] (ATCC26759, 48 h).

Regarding `N=C(N)N1CC=C(c2ccc(-c3nnc(-c4ccc(C5=CCN(C(=N)N)CC5)cc4F)n3Cc3ccccc3)c(F)c2)CC1` [Example 18], the MIC in test [1] (setting [7]) is below 0.1 µg/mL; in test [2] (setting [7]), 0.39 µg/mL (≈ 0.657 µM); in test [3] (setting [8]) it was 0.39 µg/mL (≈ 0.657 µM); in test [5] (setting [7]), 0.78 µg/mL (≈ 1.31 µM). The MIC50 in test [4] (setting [9]) and in test [6] (setting [10]) was 0.78 µg/mL (≈ 1.31 µM) throughout.

Turning to `COc1cc(C2=CCN(C(=N)N)CC2)ccc1-c1nnc(-c2ccc(C3=CCN(C(=N)N)CC3)cc2OC)n1CCO` [Example 75, 4-(4-{5-[4-(1-carbamimidoyl-1,2,3,6-tetrahydropyridin-4-yl)-2-methoxyphenyl]-4-(2-hydroxyethyl)-4H-1,2,4-triazol-3-yl}-3-methoxyphenyl)-1,2,3,6-tetrahydropyridine-1-carboximidamide trifluoroacetate], the MIC in test [1] (48 h) was found to be 1.56 µg/mL; in test [2] (48 h) it was 1.56 µg/mL; in test [3] (ATCC58877, 48 h), 0.39 µg/mL; in test [5] (48 h), 3.13 µg/mL. Further, the MIC50 in test [4] (ATCC90286, 48 h) stood at 25 µg/mL; in test [6] (ATCC26759, 48 h), 25 µg/mL.

Regarding `Cn1c(-c2ccc(C3=CCN(C(=N)N)C3)cc2F)nnc1-c1ccc(C2=CCN(C(=N)N)C2)cc1F` [Example 28, 3,3′-(4,4′-(4-Methyl-4H-1,2,4-triazole-3,5-diyl)bis(3-fluoro-4,1-phenylene)) bis(2,5-dihydro-1H-pyrrole-1-carboximidamide)], the MIC in test [1] (setting [7]), in test [2] (setting [7]), in test [3] (setting [8]) and in test [5] (setting [7]) was below 0.1 µg/mL each time. Besides, the MIC50 in test [4] (setting [9]) and in test [6] (setting [10]) was above 100 µg/mL each time.

For the compound `N=C(N)N1CC=C(c2ccc(-c3nnc(-c4ccc(C5=CCN(C(=N)N)CC5)cc4F)n3C(CO)CO)c(F)c2)CC1` [Example 71, 4-(4-{5-[4-(1-carbamimidoyl-1,2,3,6-tetrahydropyridin-4-yl)-2-fluorophenyl]-4-(1,3-dihydroxypropan-2-yl}-4H-1,2,4-triazol-3-yl)-3-fluorophenyl)-1,2,3,6-tetrahydropyridine-1-carboximidamide hydrochloride], the minimal inhibitory concentration (MIC) in test [1] (48 h) came to 1.56 µg/mL; in test [2] (48 h) it was 1.56 µg/mL; in test [3] (ATCC58877, 48 h), 0.39 µg/mL; in test [5] (48 h), 3.13 µg/mL. The MIC50 in test [4] (ATCC90286, 48 h) amounted to 25 µg/mL; in test [6] (ATCC26759, 48 h) it was 25 µg/mL.

Consider `COCCOCCn1c(-c2ccc(C3=CCN(C(=N)N)CC3)cc2F)nnc1-c1ccc(C2=CCN(C(=N)N)CC2)cc1F` [Example 81, 4-(4-{5-[4-(1-carbamimidoyl-1,2,3,6-tetrahydropyridin-4-yl)-2-fluorophenyl]-4-[2-(2-methoxyethoxy)ethyl]-4H-1,2,4-triazol-3-yl}-3-fluorophenyl)-1,2,3,6-tetrahydropyridine-1-carboximidamide], for which the MIC is 0.1 µg/mL (≈ 0.165 µM) in test [1] (setting [7]), 0.39 µg/mL (≈ 0.644 µM) in test [2] (setting [7]), 0.1 µg/mL (≈ 0.165 µM) in test [3] (setting [8]) and 0.78 µg/mL (≈ 1.29 µM) in test [5] (setting [7]). Also, the MIC50 in test [4] (setting [9]) amounted to 6.25 µg/mL (≈ 10.3 µM); in test [6] (setting [10]), 1.56 µg/mL (≈ 2.58 µM).

On to `CC(C)Nc1cc(C2=CCN(C(=N)N)CC2)ccc1-c1nnc(-c2ccc(C3=CCN(C(=N)N)CC3)cc2F)n1C(C)C` [Example 26, 4-(4-(5-(4-(1-Carbamimidoyl-1,2,3,6-tetrahydropyridin-4-yl)-2-(isopropylamino)phenyl)-4-isopropyl-4H-1,2,4-triazol-3-yl)-3-fluorophenyl)-5,6-dihydro pyridine-1(2H)-carboximidamide], for which the MIC in test [2] (setting [7]) amounted to 100 µg/mL (≈ 171 µM); in test [5] (setting [7]), 12.5 µg/mL (≈ 21.4 µM). In addition, the MIC50 in test [4] (setting [9]) worked out at 100 µg/mL (≈ 171 µM); in test [6] (setting [10]), 12.5 µg/mL (≈ 21.4 µM).
